ChEMBL document CHEMBL1833845, “Potent inhibition of bacterial neuraminidase activity by pterocarpans isolated from the roots of Lespedeza bicolor” (Bioorg Med Chem Lett, 2011)

Tests used:
Sialidase [1] = target: T1, Sialidase (Clostridium perfringens, UniProt P10481)
T1 sequence (P10481 whole entry): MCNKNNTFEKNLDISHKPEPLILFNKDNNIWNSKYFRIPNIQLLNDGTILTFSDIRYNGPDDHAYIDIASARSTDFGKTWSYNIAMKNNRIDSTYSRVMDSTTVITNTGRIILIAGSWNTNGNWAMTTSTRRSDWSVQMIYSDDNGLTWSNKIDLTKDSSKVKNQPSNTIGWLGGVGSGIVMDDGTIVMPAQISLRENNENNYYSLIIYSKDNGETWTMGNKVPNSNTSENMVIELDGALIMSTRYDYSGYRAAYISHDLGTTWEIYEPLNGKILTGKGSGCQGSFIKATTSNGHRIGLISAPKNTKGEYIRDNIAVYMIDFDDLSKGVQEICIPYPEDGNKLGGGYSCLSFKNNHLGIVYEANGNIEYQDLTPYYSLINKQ

Sialidase [2] = target: T1, Sialidase; remark: listed apart in the source

Row | SMILES | Ki (Sialidase [1]) [nM] | IC50 (Sialidase [2]) [nM]
1 | COc1c(CC=C(C)C)c(O)cc2c1[C@@H]1Oc3c(ccc(O)c3CC=C(C)C)[C@@H]1CO2 | 110 | 90
2 | COc1c(CC=C(C)C)c(O)cc2c1[C@@H]1Oc3c(cc(C)c(O)c3CC=C(C)C)[C@@H]1CO2 [BICOLOSIN A] | 160 | 320
3 | CC(C)=CCC/C(C)=C/Cc1cc2c(cc1O)OC[C@H]1c3cc(C)c(O)c(CC=C(C)C)c3O[C@@H]21 [BICOLOSIN B] | 1200 | 1060
4 | COc1cc(O)c(C/C=C(\C)CCC=C(C)C)c2c1[C@@H]1Oc3cc(O)ccc3[C@@H]1CO2 [BICOLOSIN C] | 160 | 170
5 | CC(C)=CCc1cc2c(cc1O)OC[C@H]1c3ccc(O)c(CC=C(C)C)c3O[C@@H]21 [ERYBRAEDIN C] | 2730 | 3350
6 | CC(C)=CCc1cc2c(cc1O)OCC1c3cc(C)c(O)c(CC=C(C)C)c3OC21 (stereo not drawn) [LESPEBUERGINE G4] | 1350 | 1840
7 | O=c1c(O)c(-c2ccc(O)c(O)c2)oc2cc(O)cc(O)c12 [QUERCETIN] | – | 10100
